Test results as given in patent US20190218613A1, “METHODS OF DETECTING THE FORMATION OF CELLULAR CLUSTERS OF RNA” (The Regents of the University of California, priority 2017, published 2019).
Entries after “also recorded” stand apart in the source; their conditions may differ. Read-outs that look alike come from different tables or passages of the source.

Key:
[1] = tested on: nuclear speckles (SC-35); assay type: cell-based
Description: ATP depletion was achieved by rinsing cells twice in DMEM without glucose (Gibco), followed by incubation for 10 minutes in the ATP depletion medium (DMEM without glucose with 1% (v/v) dialyzed FBS (Gibco), 10 mM sodium azide and 6 mM 2-deoxy-D-glucose). Doxorubicin (stock, 10 mM in dimethylsulfoxide (DMSO)) was diluted to the desired concentration in cell culture medium and added to cells pre-induced with doxycycline for 24 hours. Cells were incubated with doxorubicin or an equivalent dilution of DMSO only as control, for 2 hours, and imaged as described above. Ammonium acetate (stock, 5 N) was diluted to 200 mM in cell culture medium. This intermediate dilution (2×) was added to cells pre-induced with doxycycline for 24 hours to achieve a final concentration of 100 mM of ammonium acetate. Cells were incubated in this medium for 10 minutes at 37° C. Normal cell culture medium was replaced after treatment, and cells were imaged immediately or 1 hour after medium replacement. For treatment with ASO, cells pre-induced with doxycycline for 48 hours were transfected with 100 nM final concentration of ASO using either Lipofectamine RNAiMAX (Invitrogen) or TranslT-Oligo Transfection Reagent (Mirius Bio) according to the manufacturers' recommended protocols. […] Cells were imaged 12 hours after transfection.
Hybridization and wash buffers were purchased from Biosearch Technologies and used according to the manufacturer's protocol. For immunofluorescence detection of proteins, methanol-fixed cells were stained using antibodies against muscleblind-like-1 (MBNL1, Abcam, ab45899), hnRNP H (Abcam, ab10374), SC-35 (Abcam, ab11826), coilin (ab87913), fibrillarin (Abcam, ab5821), PML (Abcam, ab179466), and a corresponding Alexa Fluor 647-labelled secondary antibody (Invitrogen A-21236 or Invitrogen A-21244). Samples were co-stained with an anti-green fluorescent protein (GFP) booster antibody (GBA488, Bulldog Bio) to visualize RNA foci. After labelling, samples were mounted in Prolong Gold antifade medium (Thermo Scientific) and imaged using confocal microscopy as described above.

[2] = tested on: 47× CAG RNA foci in U-2OS cells; test: Live-cell reporter assay of RNA foci (MS2CP-YFP) in U-2OS cells; assay type: cell-based
Description: (§1) A monoclonal U-20S cell line stably expressing Tet-On 3G transactivator protein (Clontech) and a tandem-dimeric MS2 hairpin binding protein tagged with enhanced YFP (MS2CP-YFP) was generated via sequential lentiviral infection and selection. This stable cell line was transduced with repeat-containing plasmids under doxycyclinetetracycline-inducible promoter. […] Cell lines were tested for mycoplasma contamination using a standard PCR kit (LookOut Mycoplasma PCR Detection Kit, Sigma) and verified routinely by live-cell DNA staining.
(§2) RNA expression was induced by adding 1,000 ng/mL doxycycline for 12-48 hours, or as indicated. Before imaging, the culture medium was replaced with DMEM with 25 mM HEPES pH 7.5 or FluoroBrite DMEM (Invitrogen) with serum and antibiotics as listed above. For long-term imaging (>2 hours), cells were placed in a live-cell imaging chamber supplemented with 5% CO2. Cells were imaged using a spinning disk confocal microscope (Nikon Ti-Eclipse equipped with a Yokogawa CSU-X spinning disk module) using a×100, 1.49 numerical aperture oil immersion objective and an air-cooled EM-CCD. For each experimental condition, at least 30 randomly chosen cells were imaged and analyzed. Each datum point in the bar graphs represents one cell. Data shown are representative of three or more independent replicates.
ATP depletion was achieved by rinsing cells twice in DMEM without glucose (Gibco), followed by incubation for 10 minutes in the ATP depletion medium (DMEM without glucose with 1% (v/v) dialyzed FBS (Gibco), 10 mM sodium azide and 6 mM 2-deoxy-D-glucose). Doxorubicin (stock, 10 mM in dimethylsulfoxide (DMSO)) was diluted to the desired concentration in cell culture medium and added to cells pre-induced with doxycycline for 24 hours. Cells were incubated with doxorubicin or an equivalent dilution of DMSO only as control, for 2 hours, and imaged as described above. Ammonium acetate (stock, 5 N) was diluted to 200 mM in cell culture medium. This intermediate dilution (2×) was added to cells pre-induced with doxycycline for 24 hours to achieve a final concentration of 100 mM of ammonium acetate. Cells were incubated in this medium for 10 minutes at 37° C. Normal cell culture medium was replaced after treatment, and cells were imaged immediately or 1 hour after medium replacement. For treatment with ASO, cells pre-induced with doxycycline for 48 hours were transfected with 100 nM final concentration of ASO using either Lipofectamine RNAiMAX (Invitrogen) or TranslT-Oligo Transfection Reagent (Mirius Bio) according to the manufacturers' recommended protocols. Similar results were obtained with both transfection reagents. Cells were imaged 12 hours after transfection.
(§3) A fluorescence-intensity and size-based threshold was used to identify RNA foci. Briefly, U-2OS cells expressing the RNA of interest together with MS2CP-YFP were imaged using a spinning disk confocal microscope, and 0.3 μm Z-stacks were acquired. […] The nuclei were manually segmented, and the mean YFP fluorescence intensity in the nucleus was manually determined. RNA foci were identified using the FIJI 3D Objects Counter plugin, with an intensity threshold as 1.6x the mean fluorescence intensity in the nucleus of the cell, and a size cut-off of more than 50 adjoining pixels (pixel size, 83 nm×83 nm). […] This method was used to determine the number, volume, surface area, and the fluorescence intensity of the foci.

[3] = tested on: 29× GGGGCC RNA foci in U-2OS cells; test: Live-cell reporter assay of GGGGCC RNA foci in U-2OS cells; assay type: cell-based
Description: as §1
as §2, with “replicates. […]” for “replicates.”
as §3, with “foci.” for “foci. Briefly, U-2OS cells expressing the RNA of interest together with MS2CP-YFP were imaged using a spinning disk confocal microscope, and 0.3 μm Z-stacks were acquired.”

[4] = tested on: 47× CAG RNA foci in U-2OS cells; test: RNA FISH with probe against MS2 hairpin loops in U-2OS cells; assay type: cell-based
Description: For RNA FISH in U-2OS cells, cells expressing the desired RNA (induced for 24 hours) were fixed with 2% paraformaldehyde for 10 minutes at room temperature and permeabilized by overnight incubation in 70% ethanol at 4° C. Alternatively, cells were fixed and permeabilized by incubation for 10 minutes in methanol with 10% (v/v) acetic acid. Similar results were obtained with both fixation protocols. Fixed and permeabilized cells were either used immediately, or stored in the permeabilization medium at −20° C. until needed. RNA was detected using Cy3-labelled DNA oligonucleotides designed against the MS2-hairpin sequence.

[5] = tested on: 47× CAG RNA; test: In vitro RNA phase separation/gelation assay (fluorescence micrographs, index of dispersion); assay type: biochemical; conditions: for 47× CAG RNA clustering / gel formation in vitro: doxorubicin added to pre-formed clusters (37° C., 1 hour) or pre-mixed before annealing; for 47× CAG RNA clustering in vitro: 100 mM ammonium acetate (NH4OAc)
Description: For phase separation/gelation assays, RNAs were diluted to concentrations of 0.5 ng/μL to 0.5 μg/μL in 10 mM Tris pH 7.0, 10 mM MgCl2, 25 mM NaCl buffer, unless indicated otherwise. Nuclease-free buffer stocks were purchased from Ambion. RNA was denatured at 95° C. for 3 minutes and cooled down at 1-4° C. per minute to 37° C. final temperature in a thermocycler and imaged immediately. Samples were visualized using a custom spinning disk confocal microscope (Nikon Ti-Eclipse equipped with a Yokogawa CSU-X spinning disk module) using a×100, 1.49 numerical aperture oil immersion objective and an air-cooled EM-CCD (electron multiplying charge-coupled device). The extent of phase separation/gelation was quantified by the index of dispersion (σ^2/μ) of fluorescence intensity per pixel (pixel size 83 nm×83 nm). Briefly, variance in the fluorescence intensity per image was determined, and normalized to the mean fluorescence intensity in the solution phase of the RNA. For dilute solution (<10% of imaging area occupied with clusters), this parameter reports the extent of inhomogeneity in the sample. At least 20 independent imaging areas (about 1,800 μm^2 each) were analyzed for each condition to achieve a representative measure across the sample. Each datum point in the bar graphs represents one imaging area. Data shown are representative of three or more independent replicates, across two or more independent RNA preparations.
For antisense DNA-mediated repression of RNA phase separation, 47×CAG RNA (200 ng/μL or 2.4 μM) was incubated with the ASO at 20 μM final concentration, followed by heat denaturation and annealing as described above. Doxorubicin was purchased from Cell Signaling Technology (catalogue number 5927). For in vitro experiments, doxorubicin was added to pre-formed RNA clusters, and samples were incubated at 37° C. for 1 hour. Alternatively, doxorubicin and RNA were pre-mixed at indicated concentrations before annealing. Similar results were obtained in both cases.

[6] = 2.5 μM doxorubicin for 2 hours, listed as Doxorubicin

CO[C@H]([C@H](O)CC(=O)[C@@H](C)[C@@H](O)CC[C@@H](C)[C@@H]1O[C@]2(CC[C@@H](C)[C@H](CC[C@H](C)C(C)=O)O2)CC[C@@H]1C)[C@H](OC(=O)C[C@@H](O)C1=C(C)C(=O)OC1=O)C(C)C [tautomycin]
nuclear speckles ([1]; 2 μM tautomycin for 4 hours): disruption of nuclear speckles; also recorded: disrupted | 47× CAG RNA foci in cells ([2]; 2 μM tautomycin for 4 hours): disrupts the 47× CAG RNA foci; also recorded: disrupted

COc1cccc2c1C(=O)c1c(O)c3c(c(O)c1C2=O)C[C@@](O)(C(=O)CO)C[C@@H]3O[C@H]1C[C@H](N)[C@H](O)[C@H](C)O1 [doxorubicin]
nuclear speckles ([1]; 2.5 μM doxorubicin for 2 hours): not disrupted | nuclear speckles [1, 6]: without disrupting nuclear speckles | 29× GGGGCC RNA foci in cells ([3]; doxorubicin): disrupting 29× GGGGCC RNA foci; also recorded: disrupted | 47× CAG RNA foci by RNA FISH ([4]; 2.5 μM doxorubicin): disrupted | 47× CAG RNA foci in cells ([2]; 2.5 μM doxorubicin for 2 hours): specifically abrogated the 47× CAG RNA foci | 47× CAG RNA foci in cells [2, 6]: potently dissolved the 47× CAG nuclear foci in cells | concentration of doxorubicin required to disrupt RNA foci in cells ([2]; U-2OS cells, 47× CAG): 2.5 µM | 47× CAG RNA clustering / gel formation in vitro [5]: prevents 47× CAG RNA clustering | 47× CAG RNA clustering / gel formation in vitro ([5]; listed as Doxorubicin): blocked the formation of CAG RNA gels in vitro; also recorded: disrupted 47× CAG RNA clustering in vitro in a dose-dependent manner | concentration of doxorubicin needed to disrupt RNA clusters in the in vitro experiments ([5]; in vitro): about 1 mM

CC(=O)O.N [ammonium acetate]
nuclear speckles [1]: disrupted | 29× GGGGCC RNA foci in cells ([3]; NH4OAc, same cell before and 300 s after treatment): disrupted | 29× GGGGCC RNA foci in cells ([3]; NH4OAc, same cell before and 300 s after treatment, listed as NH4OAc): disrupting 29× GGGGCC RNA foci | 47× CAG RNA foci by RNA FISH ([4]; 100 mM NH4OAc): disrupted | 47× CAG RNA foci in cells [2]: disappearance of 47× CAG RNA foci within minutes; also recorded: disrupted | 47× CAG RNA clustering in vitro [5]: not observed | 47× CAG RNA clustering in vitro ([5]; listed as NH4OAc): prevents 47× CAG RNA clustering

[Cl-].[Na+] [NaCl]
clustering of 47× CAG RNA in presence of NaCl ([5]; NaCl): inhibited
